Among the data in PubChem BioAssay AID256 (DTP/NCI, 2004) are T/C values, retold here.

Values joined by “and” are separate entries in the source; they are usually repeats but may differ in a detail not shown here. Equal entries are not always repeated. Toxic doses and inconclusive results are not listed.

In the assay the test system is CD2F1 mice, L1210 leukemia ip, survival T/C. The experiment in a line: NCI In Vivo Anticancer Drug Screen. Data for tumor model L1210 Leukemia (intraperitoneal) in CD2F1 (CDF1) mice. The settings on record: higher = longer survival. Put shortly:
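Each value reflects a quotient of treated over vehicle control outcomes in mice with a transplanted tumor.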

Setting [1] is: endpoint: mean survival time, dose: 200.0 mg/kg/injection, schedule: Q04DX003 (ip), vehicle: saline.
[2] abbreviates: endpoint: mean survival time, dose: 400.0 mg/kg/injection, schedule: Q04DX003 (ip), vehicle: saline.
The mark [3] stands for this setting: endpoint: mean survival time, dose: 100.0 mg/kg/injection, schedule: Q01DX009 (ip), vehicle: saline.
Where [4] appears, read: endpoint: mean survival time, dose: 200.0 mg/kg/injection, schedule: Q01DX009 (ip), vehicle: saline.

For `O=C(O)c1cc(C(=O)O)cc(S(=O)(=O)O)c1.[NH-]C1CCCCC1[NH-].[Pt+2]`, the T/C (endpoint: median survival time, dose: 3.12 mg/kg/injection, schedule: Q04DX003 (ip), vehicle: saline) was 121 % of control and 103 % of control; the T/C (endpoint: median survival time, dose: 12.5 mg/kg/injection, schedule: Q04DX003 (ip), vehicle: saline) was 168 % of control; the T/C (endpoint: median survival time, dose: 25.0 mg/kg/injection, schedule: Q04DX003 (ip), vehicle: saline) was 176 % of control; the T/C (endpoint: median survival time, dose: 50.0 mg/kg/injection, schedule: Q04DX003 (ip), vehicle: saline) is 235 % of control and 350 % of control; the T/C (endpoint: median survival time, dose: 100.0 mg/kg/injection, schedule: Q04DX003 (ip), vehicle: saline) is 188 % of control.
For the compound `OCC1OC(Nc2ncnc3snnc23)C(O)C1O` (stereo not drawn), the T/C is 157 % of control under setting [1] and 173 % of control under setting [2].
For the compound `CC1(C)OC1C(=O)O` (stereo not drawn), the T/C is, setting by setting: (endpoint: mean survival time, dose: 100.0 mg/kg/injection, schedule: Q04DX003 (ip), vehicle: saline) 106 % of control; under setting [1], 96 % of control; under setting [2], 98 % of control.
Consider `COc1ccc(C(=O)NNC(=O)c2ccc(OC)cc2)cc1`, for which the T/C was 108 % of control (endpoint: mean survival time, dose: 100.0 mg/kg/injection, schedule: Q01DX001 (ip), vehicle: Klucel (hydroxypropylcellulose) (HPC)); 104 % of control (endpoint: mean survival time, dose: 200.0 mg/kg/injection, schedule: Q01DX001 (ip), vehicle: Klucel (hydroxypropylcellulose) (HPC)); 100 % of control (endpoint: mean survival time, dose: 400.0 mg/kg/injection, schedule: Q01DX001 (ip), vehicle: Klucel (hydroxypropylcellulose) (HPC)).
As to `NC(=O)OCC(O)C(O)C(N)C(=O)NC(C(=O)O)C1OC(n2ccc(=O)[nH]c2=O)C(O)C1O` (stereo not drawn), the T/C is, setting by setting: (endpoint: mean survival time, dose: 12.5 mg/kg/injection, schedule: Q01DX005 (ip), vehicle: water) 96 % of control; (endpoint: mean survival time, dose: 25.0 mg/kg/injection, schedule: Q01DX005 (ip), vehicle: water) 103 % of control; (endpoint: mean survival time, dose: 50.0 mg/kg/injection, schedule: Q01DX005 (ip), vehicle: water) 98 % of control; (endpoint: mean survival time, dose: 100.0 mg/kg/injection, schedule: Q01DX005 (ip), vehicle: water) 101 % of control; (endpoint: mean survival time, dose: 200.0 mg/kg/injection, schedule: Q01DX005 (ip), vehicle: water) 94 % of control.
Regarding `Nc1cc(Cl)c2ncn(C3OC(CO)C(O)C3O)c2n1` (stereo not drawn), the T/C is 107 % of control (endpoint: mean survival time, dose: 50.0 mg/kg/injection, schedule: Q01DX009 (ip), vehicle: saline); 104 % of control under setting [3]; 104 % of control under setting [4].
For `CC(=O)OCC1OC(n2ccc(O)cc2=O)C(OC(C)=O)C1OC(C)=O` (stereo not drawn), the T/C was 154 % of control (endpoint: median survival time, dose: 44.0 mg/kg/injection, schedule: Q01DX009 (ip), vehicle: saline + alcohol); 164 % of control (endpoint: median survival time, dose: 67.0 mg/kg/injection, schedule: Q01DX009 (ip), vehicle: saline + alcohol); 174 % of control (endpoint: median survival time, dose: 100.0 mg/kg/injection, schedule: Q01DX009 (ip), vehicle: saline + alcohol); 165 % of control (endpoint: median survival time, dose: 150.0 mg/kg/injection, schedule: Q01DX009 (ip), vehicle: saline + alcohol).
With `CC(=O)C(Cl)C(C)=O.CC(=O)C(Cl)C(C)=O.CO.CO.[Ni]`, the T/C (endpoint: mean survival time, dose: 50.0 mg/kg/injection, schedule: Q04DX003 (ip), vehicle: saline) was 108 % of control.
As for `c1ccc2nc(C3CO3)cnc2c1` (stereo not drawn), the T/C was 100 % of control (endpoint: mean survival time, dose: 50.0 mg/kg/injection, schedule: Q04DX003 (ip), vehicle: saline with Tween-80); 96 % of control (endpoint: mean survival time, dose: 100.0 mg/kg/injection, schedule: Q04DX003 (ip), vehicle: saline with Tween-80); 97 % of control (endpoint: mean survival time, dose: 200.0 mg/kg/injection, schedule: Q04DX003 (ip), vehicle: saline with Tween-80).
As to `O=CNC(Cc1ccc(O)cc1)C(=O)O` (stereo not drawn), the T/C under setting [3] is 97 % of control; the T/C under setting [4] was 94 % of control; the T/C (endpoint: mean survival time, dose: 400.0 mg/kg/injection, schedule: Q01DX009 (ip), vehicle: saline) is 89 % of control.
As to `Nc1ncc2c(n1)SCC2`, the T/C (endpoint: mean survival time, dose: 200.0 mg/kg/injection, schedule: Q01DX001 (ip), vehicle: saline) is 119 % of control.
Consider `C=C1C(=O)OC2/C=C(\C)CC/C=C(/C=O)C(OC(=O)C(C)C)C(O)C12` (stereo not drawn), for which the T/C was 113 % of control and 103 % of control (endpoint: mean survival time, dose: 1.0 mg/kg/injection, schedule: Q01DX009 (ip), vehicle: saline with Tween-80); 103 % of control and 105 % of control and 107 % of control (endpoint: mean survival time, dose: 2.0 mg/kg/injection, schedule: Q01DX009 (ip), vehicle: saline with Tween-80); 97 % of control and 100 % of control and 107 % of control (endpoint: mean survival time, dose: 4.0 mg/kg/injection, schedule: Q01DX009 (ip), vehicle: saline with Tween-80); 102 % of control and 109 % of control and 112 % of control (endpoint: mean survival time, dose: 8.0 mg/kg/injection, schedule: Q01DX009 (ip), vehicle: saline with Tween-80); 92 % of control and 96 % of control (endpoint: mean survival time, dose: 16.0 mg/kg/injection, schedule: Q01DX009 (ip), vehicle: saline with Tween-80).
With `O=C(O)COc1ccc(Cl)cc1Cl` (tested in a mixture with another compound), the T/C reads like this: (endpoint: mean survival time, dose: 12.5 mg/kg/injection, schedule: Q01DX009 (ip), vehicle: saline with Tween-80) 89 % of control; (endpoint: mean survival time, dose: 25.0 mg/kg/injection, schedule: Q01DX009 (ip), vehicle: saline with Tween-80) 94 % of control; (endpoint: mean survival time, dose: 25.0 mg/kg/injection, schedule: Q04DX002 (ip), vehicle: saline with Tween-80) 111 % of control; (endpoint: mean survival time, dose: 50.0 mg/kg/injection, schedule: Q01DX009 (ip), vehicle: saline with Tween-80) 87 % of control and 104 % of control; (endpoint: mean survival time, dose: 50.0 mg/kg/injection, schedule: Q04DX002 (ip), vehicle: saline with Tween-80) 121 % of control; (endpoint: mean survival time, dose: 100.0 mg/kg/injection, schedule: Q01DX009 (ip), vehicle: saline with Tween-80) 101 % of control. In addition, the T/C is, setting by setting: (endpoint: mean survival time, dose: 100.0 mg/kg/injection, schedule: Q04DX002 (ip), vehicle: saline with Tween-80) 99 % of control; (endpoint: mean survival time, dose: 200.0 mg/kg/injection, schedule: Q01DX009 (ip), vehicle: saline with Tween-80) 93 % of control; (endpoint: mean survival time, dose: 200.0 mg/kg/injection, schedule: Q04DX002 (ip), vehicle: saline with Tween-80) 96 % of control.
Turning to `NC(CC(=O)c1cccc2oc3cc(=O)c4[nH]c(C(=O)O)cc(=O)c4c-3nc12)C(=O)O` (stereo not drawn), the T/C (endpoint: mean survival time, dose: 50.0 mg/kg/injection, schedule: Q01DX001 (ip), vehicle: carboxymethylcellulose (CMC)) was 98 % of control; the T/C (endpoint: mean survival time, dose: 100.0 mg/kg/injection, schedule: Q01DX001 (ip), vehicle: carboxymethylcellulose (CMC)) is 95 % of control; the T/C (endpoint: mean survival time, dose: 200.0 mg/kg/injection, schedule: Q01DX001 (ip), vehicle: carboxymethylcellulose (CMC)) was 95 % of control; the T/C (endpoint: mean survival time, dose: 400.0 mg/kg/injection, schedule: Q01DX001 (ip), vehicle: carboxymethylcellulose (CMC)) was 101 % of control.
As for `CSC1SCC2C(=O)N(C)C(C(C)C)C(=O)OCC(NC(=O)c3cnc4ccccc4n3)C(=O)NC(C)C(=O)N(C)C1C(=O)N(C)C(C(C)C)C(=O)OCC(NC(=O)c1cnc3ccccc3n1)C(=O)NC(C)C(=O)N2C` (stereo not drawn), the T/C was 105 % of control (endpoint: mean survival time, dose: 4.0 micrograms/kg/injection, schedule: Q01DX009 (ip), vehicle: saline); 107 % of control (endpoint: mean survival time, dose: 8.0 micrograms/kg/injection, schedule: Q01DX009 (ip), vehicle: saline); 102 % of control (endpoint: mean survival time, dose: 15.0 micrograms/kg/injection, schedule: Q01DX009 (ip), vehicle: saline); 111 % of control (endpoint: mean survival time, dose: 16.0 micrograms/kg/injection, schedule: Q01DX009 (ip), vehicle: saline); 118 % of control (endpoint: mean survival time, dose: 30.0 micrograms/kg/injection, schedule: Q01DX009 (ip), vehicle: saline); 92 % of control (endpoint: mean survival time, dose: 32.0 micrograms/kg/injection, schedule: Q01DX009 (ip), vehicle: saline). Besides, the T/C is, setting by setting: (endpoint: mean survival time, dose: 60.0 micrograms/kg/injection, schedule: Q01DX009 (ip), vehicle: saline) 108 % of control; (endpoint: mean survival time, dose: 120.0 micrograms/kg/injection, schedule: Q01DX009 (ip), vehicle: saline) 86 % of control; (endpoint: mean survival time, dose: 192.0 micrograms/kg/injection, schedule: Q01DX009 (ip), vehicle: saline) 114 % of control; (endpoint: median survival time, dose: 67.0 micrograms/kg/injection, schedule: Q01DX005 (ip), vehicle: saline) 122 % of control; (endpoint: median survival time, dose: 150.0 micrograms/kg/injection, schedule: Q01DX005 (ip), vehicle: saline) 120 % of control and 123 % of control; (endpoint: median survival time, dose: 200.0 micrograms/kg/injection, schedule: Q01DX005 (ip), vehicle: saline) 106 % of control.
